Test [1] concerns SOD1-G93A mice. Description: Survival (time taken until death) of SOD1-G93A mice. It is filed as in vivo. As for the experimental part:
Experimental set-up: 50 day old female SOD1-G93A mice were treated with either 5 mg/kg AMD3100 alone, 896 mg/kg Na-L-lactate alone or a combination of […] AMD3100 and 896 mg/kg Na-L-lactate twice a week, starting at 50 days old (for ALS), until death. All treatments were administered subcutaneously. The mice were weighed once a week following the various treatments and tested for motor function, also once a week. The time taken until death was recorded.
Experimental set-up: 50 day old female SOD1-G93A mice were treated with either 5 mg/kg AMD3100 alone or a complex of 0.25 mg/kg AMD3100+0.08 mg/kg Zinc or 0.125 mg/kg AMD3100+0.04 mg/kg Zinc twice a week, starting at 50 days old until death. All treatments were administered subcutaneously. The mice were weighed once a week following the various treatments and tested for motor function, also once a week. The time taken until death was recorded.
Experimental set-up: 50 day old male SOD1-G93A mice were treated with either 5 mg/kg AMD3100 alone or a complex of 0.5 mg/kg AMD3100+0.17 mg/kg Zinc+896 mg/kg lactate twice a week, starting at 50 days old, till death. All treatments were administered subcutaneously. The time taken until death was recorded.

Test [2] has as its system AP. Description: AP by ELISA in 3×Tg-AD mice. It is filed as in vivo. To be noted: membrane fraction, 0.5 mg/kg AMD3100 (+0.17 mg/kg Zn+896 mg/kg lactate), vs PBS. On the procedure:
Experimental set-up: 9 month old 3×Tg-AD mice were treated with PBS or 0.5 mg/kg AMD3100 or 0.5 mg/kg AMD3100 0.17 mg/kg Zn or 0.5 mg/kg AMD3100+0.17 mg/kg Zn+896 mg/kg lactate once a week. All treatments were administered subcutaneously. After 3 month of treatment, all mice were subjected to Y maze test in order to evaluate their cognitive function. Each mouse was allowed to explore two arms of the Y maze for 5 min, rested for another 5 min, and then explored all 3 arms of the Y maze for another 5 min.

The subject of test [3] is SOD1-G93A mice. The note with it: SOD1-G93A transgenic mice; previously shown; cited from earlier work.
In test [4] the test system is SOD1-G93A mice. To be noted: SOD1-G93A transgenic mice; previously shown; cited from earlier work. The source holds these as a separate data set.
Test [5] concerns MCT1. The note with it: female SOD1-G93A mice; 5 mg/kg AMD3100; spinal cord (FIG. 4A); vs control.
Excerpt: The control group is set to 100%. Results are mean ±S.E.M, T-test; *p<0.05.
In test [6] the test system is SOD1-G93A mice. The note with it: SOD1-G93A transgenic mice; previously shown; cited from earlier work. The source holds these as a separate data set.

As for `C[C@H](O)C(=O)[O-].[Na+]` [lactate, Na-L-lactate], the median survival in test [1] (female SOD1-G93A mice, 896 mg/kg lactate s.c. twice a week from 50 days old) was 148 days.
As for `c1cc(CN2CCCNCCNCCCNCC2)ccc1CN1CCCNCCNCCCNCC1` [AMD3100, 1,1′-[1,4-phenylenebis(methylene)]bis [1,4,8,11-tetraazacyclotetradecane]], in test [2], the “AP change by ELISA” value is on record as “Reduction in AP was statistically significant”. Moreover, the median survival in test [1] (female SOD1-G93A mice, 5 mg/kg AMD3100 s.c. twice a week from 50 days old) stood at 144 days; in test [1] (male SOD1-G93A mice, 5 mg/kg AMD3100 s.c. twice a week from 50 days old) it was 140 days. In addition, the “disease onset (in words)” value in test [3] is given as “delayed”. Moreover, the “motor function (in words)” value in test [4] is listed as “improved”. For the same compound, in test [5], the MCT1 levels result is “increase”. Further, the “survival (in words)” value in test [6] was “significantly increased”.

(Values after patent publication US20180296551A1, “METHODS AND COMPOSITIONS FOR TREATING NEURODEGENERATIVE DISEASES” (priority 2015, published 2018).)
